In PMC11666819, “Isolation, Structure Elucidation, and Bioactivity Evaluation of Two Alkaloids From Piper chaba H. Stem: A Traditional Medicinal Spice and Its Chemico‐Pharmacological Aspects” (Food Science & Nutrition, 2024):
Values joined by “and” are separate entries in the source; they are usually repeats but may differ in a detail not shown here. Equal entries are not always repeated.

What was measured:
[1] = test system: Bacillus megaterium [ATCC 25918]; assay: Disk diffusion test; assay type: cell-based; conditions: for Zone of Inhibition: Bacillus megaterium, standards 30 μg/disk; for zone of inhibition at 100 µg/disc: Priestia megaterium, ATCC25918
[2] = test system: Bacillus subtilis [ATCC6633]; assay: Disk diffusion test; assay type: cell-based; conditions: for Zone of Inhibition: standards 30 μg/disk; for zone of inhibition at 100 µg/disc: ATCC6633
[3] = test system: Sarcina lutea [clinical isolates]; assay: Disk diffusion test; assay type: cell-based; conditions: for Zone of Inhibition: Sarcina lutea, standards 30 μg/disk; for zone of inhibition at 100 µg/disc: Micrococcus luteus
[4] = test system: Vibrio parahemolyticus [clinical isolates]; assay: Disk diffusion test; assay type: cell-based; conditions: for Zone of Inhibition: Vibrio parahemolyticus, standards 30 μg/disk; for zone of inhibition at 100 µg/disc: Vibrio
[5] = test system: Shigella dysenteriae [clinical isolates]; assay: Disk diffusion test; assay type: cell-based; conditions: for Zone of Inhibition: standards 30 μg/disk
[6] = test system: Salmonella paratyphi [clinical isolates]; assay: microbe, parasite or virus in culture; assay type: cell-based; conditions: for Zone of Inhibition: Salmonella paratyphi, standards 30 μg/disk; for zone of inhibition at 100 µg/disc: Salmonella enterica, PARATYPHI
[7] = test system: Bacillus cereus [clinical isolates]; assay: Disk diffusion test; assay type: cell-based
[8] = test system: Salmonella typhi [clinical isolates]; assay: Disk diffusion test; assay type: cell-based; conditions: for Zone of Inhibition: Salmonella typhi; for zone of inhibition at 100 µg/disc: Salmonella enterica, TYPHI
[9] = test system: Escherichia coli [ATCC25922]; assay: Disk diffusion test; assay type: cell-based; conditions: for Zone of Inhibition: standards 30 μg/disk; for zone of inhibition at 100 µg/disc: ATCC25922
[10] = test system: Pseudomonas aeruginosa [ATCC27833]; assay: Disk diffusion test; assay type: cell-based; conditions: for zone of inhibition at 100 µg/disc: ATCC27833
[11] = test system: Staphylococcus aureus [ATCC25923]; assay: Disk diffusion test; assay type: cell-based; conditions: for Zone of Inhibition: standards 30 μg/disk; for zone of inhibition at 100 µg/disc: ATCC25923
[12] = test system: Vibrio mimicus [clinical isolates]; assay: Disk diffusion test; assay type: cell-based; conditions: for Zone of Inhibition: standards 30 μg/disk
[13] = test system: castor oil‐induced diarrhea; assay: Castor oil‐induced diarrhea test; assay type: in vivo, Swiss albino mice; conditions: mice; for Number of diarrheal feces: mean
Method: (§1) To carry out the in vivo experiment, Swiss albino mice aged between 4 and 5 weeks, of both genders, were obtained from the Animal Resource Branch of the International Centre for Diarrheal Diseases and Research, Bangladesh (ICDDR, B) (the size of the animal population, n = 5). The mice were housed in standard polypropylene cages with a 12‐h light–dark cycle. Additionally, optimal conditions such as a controlled room temperature of 24°C ± 2°C and a relative humidity of 60%–70% were upheld. They were provided with ICDDR, B‐formulated rodent food, and water ad libitum. The research protocol was approved by the Animal Ethics Committee of the State University of Bangladesh, Dhaka (2023‐01‐04/SUB/A‐ ERC/003) before initiating the study. Throughout the experiments, strict adherence to guidelines for the use and care of laboratory animals was ensured. Recognizing the sensitivity of mice to environmental variations, they were acclimatized to the experimental conditions for a minimum of 3–4 days before the commencement of the experiment. Furthermore, all ethical protocols and regulations were strictly adhered to during the design and execution of the research experiments. At the end of the experiment, an anesthesia overdose (Ketamine HCl [100 mg/kg] and Xylazine [7.5 mg/kg]) through the intraperitoneal route was given to the mice models followed by euthanasia, following the previously delineated protocols established by Zimmermann ([1983]) and Davis ([2001]) (Alam et al. [2021]; Davis [2001]; Zimmermann [1983]). All tests were carried out in abiding with the guidelines for the care and use of laboratory animals, as approved by the institutional ethical committee.
The antidiarrheal potential of the compounds Chabamide I and Chingchengenamide A isolated from P. chaba was scrutinized employing the castor oil‐induced method, as delineated by Shoba and Thomas ([2001]) with slight adjustments. In this investigation, mice were judiciously randomized into four cohorts, each consisting of six subjects. Before experimentation, the mice underwent an overnight fasting period with unrestricted access to water.
Group I, designated as the control, received vehicle solutions comprising distilled water with 1% Tween‐80. […] Groups III and IV, representing the test cohorts, received isolated phytochemicals individually at oral dosages of 10 and 20 mg/kg body weight, respectively. An additional 0.5 mL of castor oil was applied to all subjects 1 h after the initial application of test samples. Subsequently, individual mice were placed in enclosures with floors lined with transparent paper.
Throughout the observational timeframe, diverse parameters were meticulously monitored, encompassing the initiation of diarrhea, quantification of wet stools in terms of number and weight, and the cumulative number and weight of fecal output. The observation persisted until 4 h […] the subsequent application of castor oil, with the calculated mean values being designated as the definitive results.

[14] = test system: acetic acid‐induced writhing; assay: Acetic acid‐induced writhing test; assay type: in vivo, Swiss albino mice; conditions: mice; for Number of writhing: mean
Method: as §1
The analgesic efficacy of the isolated compounds, Chabamide I and Chingchengenamide A, was assessed utilizing the acetic acid‐induced writhing test, following the methodology outlined by Ahmad et al. ([2010]). […] Conversely, Groups III and IV received individual alkaloids at doses of 10 and 20 mg/kg; b.w, p.o., respectively. Subsequently, an intraperitoneal injection of acetic acid solution (0.6% v/v) was administered. The frequency of writhing responses was meticulously recorded at 5‐min intervals post‐acetic acid injection and monitored over 25 min.

[15] = test system: eight tested human tumor cell lines; parameters: method as in Wang et al. [2014]; conditions: ref Wang et al. [2014]; cited from earlier work

Row | SMILES | Zone of Inhibition [1] [mm] | Zone of Inhibition [2] [mm] | Zone of Inhibition [3] [mm] | Zone of Inhibition [4] [mm] | Zone of Inhibition [5] [mm] | Zone of Inhibition [6] [mm] | Zone of Inhibition ([7]; standards 30 μg/disk) [mm] | Zone of Inhibition ([8]; standards 30 μg/disk) [mm] | Zone of Inhibition [9] [mm] | Zone of Inhibition ([10]; standards 30 μg/disk) [mm] | Zone of Inhibition [11] [mm] | Zone of Inhibition [12] [mm] | zone of inhibition at 100 µg/disc [1] [mm] | zone of inhibition at 100 µg/disc [2] [mm] | % reduction of diarrhea ([13]; 10 mg/kg b.w., oral) [%] | Number of diarrheal feces ([13]; 10 mg/kg b.w., oral) | % reduction of diarrhea ([13]; 20 mg/kg b.w., oral) [%] | Number of diarrheal feces ([13]; 20 mg/kg b.w., oral) | zone of inhibition at 100 µg/disc [3] [mm] | zone of inhibition at 100 µg/disc [4] [mm] | other results
1 | CC1(C)S[C@@H]2[C@H](NC(=O)[C@H](N)c3ccc(O)cc3)C(=O)N2[C@H]1C(=O)O [Amoxicillin, amoxicillin, reference compound] | 29 | 26 | 32 | 35 | 30 | 32 | 33 | 31 | 37 | 38 | 36 | 28 | – | – | – | – | – | – | – | – | –
2 | CC[C@H]1OC(=O)[C@H](C)[C@@H](O[C@H]2C[C@@](C)(OC)[C@@H](O)[C@H](C)O2)[C@H](C)[C@@H](O[C@@H]2O[C@H](C)C[C@H](N(C)C)[C@H]2O)[C@](C)(O)C[C@@H](C)CN(C)[C@H](C)[C@@H](O)[C@]1(C)O [Azithromycin, azithromycin, reference compound] | 33 | 32 | 37 | 40 | 38 | 32 | 35 | 38 | 39 | 42 | 39 | 33 | – | – | – | – | – | – | – | – | –
3 | CC(C)CNC(=O)C1C(C(=O)N2CCCCC2)C=CC(c2ccc3c(c2)OCO3)C1c1ccc2c(c1)OCO2 (stereo not drawn) [Chabamide I] | – | – | – | – | – | – | – | – | – | – | – | – | 15 | 11 | 43.33 | 5.67 | 46.67 | 5.33 | 16 | 16 | zone of inhibition at 100 µg/disc [5]: 18 mm; zone of inhibition at 100 µg/disc [6]: 18 mm; zone of inhibition at 100 µg/disc [7]: 20 mm; Zone of Inhibition ([7]; 100 μg/disk): notable antimicrobial activity; zone of inhibition at 100 µg/disc [8]: 21 mm; Zone of Inhibition ([8]; 100 μg/disk): notable antimicrobial activity; % reduction of writhing ([14]; 10 mg/kg b.w., p.o.): 40.82%; Number of writhing ([14]; 10 mg/kg b.w., p.o.): 9.67; % reduction of writhing ([14]; 20 mg/kg b.w., p.o.): 53.06%; Number of writhing ([14]; 20 mg/kg b.w., p.o.): 7.67; zone of inhibition at 100 µg/disc [9]: 18 mm; Zone of Inhibition ([10]; 100 μg/disk): notable antimicrobial activity; zone of inhibition at 100 µg/disc [10]: 21 mm; zone of inhibition at 100 µg/disc [11]: 18 mm; zone of inhibition at 100 µg/disc [12]: 15 mm; inhibitory effectiveness against human tumor cell lines [15]: inhibitory effectiveness against at least one of eight tested human tumor cell lines
4 | CC(C)CNC(=O)/C=C/C=C/CCc1ccc2c(c1)OCO2 [Chingchengenamide A] | – | – | – | – | – | – | – | – | – | – | – | – | 14 | 13 | 33.33 | 6.67 | 40 | 6 | 16 | 15 | zone of inhibition at 100 µg/disc [5]: 15 mm; zone of inhibition at 100 µg/disc [6]: 14 mm; zone of inhibition at 100 µg/disc [7]: 17 mm; zone of inhibition at 100 µg/disc [8]: 12 mm; % reduction of writhing ([14]; 10 mg/kg b.w., p.o.): 34.69%; Number of writhing ([14]; 10 mg/kg b.w., p.o.): 10.67; % reduction of writhing ([14]; 20 mg/kg b.w., p.o.): 42.86%; Number of writhing ([14]; 20 mg/kg b.w., p.o.): 9.33; zone of inhibition at 100 µg/disc [9]: 17 mm; zone of inhibition at 100 µg/disc [10]: 21 mm; zone of inhibition at 100 µg/disc [11]: 15 mm; zone of inhibition at 100 µg/disc [12]: 16 mm; inhibitory effectiveness against human tumor cell lines [15]: inhibitory effectiveness against at least one of eight tested human tumor cell lines
5 | O=C(O)Cc1ccccc1Nc1c(Cl)cccc1Cl [Diclofenac Sodium, diclofenac sodium, reference compound] | – | – | – | – | – | – | – | – | – | – | – | – | – | – | – | – | – | – | – | – | % reduction of writhing ([14]; standard, 5 mg/kg b.w., 5 mg/kg): 80% and 77.55%; Number of writhing ([14]; standard, 5 mg/kg b.w.): 3.67
6 | CN(C)C(=O)C(CCN1CCC(O)(c2ccc(Cl)cc2)CC1)(c1ccccc1)c1ccccc1 [Loperamide, loperamide, reference compound] | – | – | – | – | – | – | – | – | – | – | – | – | – | – | – | – | – | – | – | – | Number of diarrheal feces ([13]; standard, 5 mg/kg b.w.): 2
